Where two headings read alike, the source gives them in different places.
Legend:
[1] = test system: patient_146514; assay: microbe, parasite or virus in culture; format: cell-based, HIV; settings: AVE 2, patient_146514, primer set 3
Experimental: (§1) The integrase encoding sequence was amplified from either wildtype HIV-1 (IIIB) or NL4.3 virus, or HXB2D site-directed mutant viruses containing mutations in integrase (such as T66I, S153Y, M154I, or combinations thereof) (Hazuda et al., Science 2000, 287, 646-650), or patient samples. Starting from RNA, extracted from virus supernatant or plasma using the QIAamp® viral RNA extraction kit (Qiagen), cDNA was synthesized by reverse transcription (Expand TM reverse transcriptase, 30 min at 42°C) with the primer 3'EGINT10 (SEQ ID NO 11), followed by a nested PCR. The outer PCR was performed with the primers 5'EGINT1 (SEQ ID NO 1) and 3'EGINT10 (SEQ ID NO 11) (ΔR-IN-vif construct) or 5'EGINT3 (SEQ ID NO 4) and 3'EGINT10 (SEQ ID NO 11) (ΔIN construct) (Expand™ High Fidelity PCR system), and 5 µl of the outer product was used for an inner PCR with primers 5'EGINT2 (SEQ ID NO 3) and 3'EGINT11 (SEQ ID NO 12) (ΔR-IN-vif construct) or 5'EGINT4 (SEQ ID NO 5) and 3'EGINT6 (SEQ ID NO 7) (ΔIN construct). In a second protocol the outer primers were identical as described above, the inner primers are 5'EGINT5 (SEQ ID NO 6) and 3'EGINT6 (SEQ ID NO 7). The amplicons can be used for genotyping and phenotyping. Cycling conditions for both PCRs are denaturation for 3 min at 95°C, followed by 30 cycles of 1 min 90°C, 30 sec 55°C, and 2 min 72°C. A final extension was performed at 72°C for 10 min. For recombination, PCR products are purified using the QiaQuick® 96 PCR BioRobot kit (Qiagen), according to the manufacturer's protocol. If the protocol starts from DNA containing the HIV material such as proviral DNA, the reverse transcriptase step is not needed. The nested approach is also not needed when starting from proviral DNA. The obtained amplicons were sequenced using the primers: In_seq1F (SEQ ID NO 17), In_seq2F (SEQ ID NO 18), In_seq3F (SEQ ID NO 19), IN_seq1R (SEQ ID NO 20), IN_seq2R (SEQ ID NO 21), and IN_seq3R (SEQ ID NO 22).
(§2) A ΔR-IN-vif or ΔIN deletion construct was generated by site-directed mutagenesis on the template pSV40HXB2D with the primers MUT-IN1 (SEQ ID NO 13) and MUT-IN2 (ΔR-IN-vif construct) (SEQ ID NO 14) or MUT-IN3 (SEQ ID NO 15) and MUT-IN4 (SEQ ID NO 16) (ΔIN construct) (protocol Site-directed mutagenesis kit, Stratagene). After DpnI digestion for removal of the methylated template DNA, the construct was digested with SmaI and ligated to circulize the plasmid. The plasmid was transformed into competent cells such as Top10 cells, and colonies were screened for the presence of the deletion construct. The IN-deletion construct was checked by sequence analysis with primers 5'EGINT1 (SEQ ID NO 1) or […] and 3'EGINT10 (SEQ ID NO 11) or 3'EGINT11 (SEQ ID NO 12). For use in recombination experiments, large-scale plasmid DNA preparations were linearized by SmaI digestion and recombined with PCR amplified integrase genes from wild type, mutant, or patient viruses. The plasmid containing the integrase deletion (ΔIN) has been deposited pSV40HXB2D-ΔIN. The sequence of said plasmid is 14377 nucleotides long. The ΔR-IN-vif deletion construct is 13975 nucleotides long. The pSV40HXB2D-ΔIN was deposited at the Belgian Coordinated Collections of Micro-Organisms located at the Universiteit Gent - Laboratorium voor Moleculaire Biologie on August 5, 2002 and the accession number is LMBP 4574.
(§3) Recombinant virus was produced by co-transfection by electroporation of the SmaI-linearized IN-deletion construct and the integrase amplicon into MT4 cells or MT4 cells equipped with an LTR driven reporter gene construct. Production of recombinant virus was evaluated by scoring the cytopathogenic effect (CPE) that is induced by HIV-infection of MT4 cells or by the LTR-driven reporter signal induced by HIV infection in MT4 reporter cells.

[2] = test system: NL 4-3; assay: microbe, parasite or virus in culture; format: cell-based, HIV-1; settings: for fold change: fold change in EC50; for EC50: read-out: EC 50
Experimental: as §1, §2, §3

[3] = test system: WT III B; assay: microbe, parasite or virus in culture; format: cell-based, HIV-1; settings: AVE 5, WT III B, primer set 4
Experimental: as §1, §2, §3

[4] = test system: pHXB2D control; assay: Antiviral experiment with control clone, transfected directly without recombination; format: cell-based, HIV; settings: AVE 6, pHXB2D control, no recombination
Experimental: Recombinant virus was produced by co-transfection by electroporation of the SmaI-linearized IN-deletion construct and the integrase amplicon into MT4 cells or MT4 cells equipped with an LTR driven reporter gene construct. Production of recombinant virus was evaluated by scoring the cytopathogenic effect (CPE) that is induced by HIV-infection of MT4 cells or by the LTR-driven reporter signal induced by HIV infection in MT4 reporter cells. Green fluorescent protein was used as the reporter signal. Viruses are harvested and titrated at maximum CPE. For recombination the deletion construct pSV40HXB2D-ΔIN was used. Recombination experiments were performed with amplicon from wildtype HIV IIIB and NL4.3, and patient sample 146514 generated by both primer sets. For each recombination 2 µg amplicon was co-transfected with 10 µg SmaI-digested pSV40HXB2D-ΔIN by electroporation into MT4-LTR-EGFP cells. Virus stocks were titrated and tested in an antiviral experiment on a reference panel including nucleoside reverse transcriptase inhibitors (NRTI), non- nucleoside reverse transcriptase inhibitors (NNRTI), protein inhibitor (PR), entry and integrase (IN) inhibitors (Table 2). Recombination was checked by nucleic acid sequence analysis using protocols known to the person skilled in the art. Sequencing primers which can be used are In_seq1F (SEQ ID NO 17), In_seq2F (SEQ ID NO 18), In_seq3F (SEQ ID NO 19), IN_seq1R (SEQ ID NO 20), IN_seq2R (SEQ ID NO 21), and IN_seq3R (SEQ ID NO 22). The recombinant virus was evaluated in an anti-viral assay with a panel of reference compounds including nucleoside RT inhibitors (NRTI) Zidovudine (AZT) Lamivudine (3TC), Didanosine (DDI), non-nucleoside RT inhibitors (NNRTI) Nevirapine (NVP), 4-[[6-amino-5-bromo-2-[(4-cyanophenyl)amino]-4-pyrimidinyl]oxy]-3,5-dimethyl-benzonitrile also referred to as compound 1, 4-[[6-amino-5-bromo-2-[(4-cyanophenyl)amino]-4-pyrimidinyl]oxy]-3,5-dimethyl-Benzonitrile, also referred to as compound 2 protease inhibitors (PR) Saquinavir (SQV), Amprenavir (APV), Indinavir (IDV), [[…]-3-[[(4-aminophenyl)sulfonyl](2-methylpropyl)amino]-2-hydroxy-1-(phenylmethyl)-propyl]-, (3R,3aS,6aR)-hexahydrofuro[2,3-b]furan-3-yl ester carbamic acid also referred to as compound 3, entry-inhibitors (Entry)(AMD3100, DS5000, ATA), and integrase inhibitor (IN) 2-(1-methylethyloxy)-α,γ dioxo-5-(phenylmethyl)-benzenebutanoic acid also referred to as compound 4. […] AVE means antiviral experiment. Type means the type of inhibitor investigated. The fold change is the fold change in EC50. WT III B means that a portion of the wild type IIIB strain has been amplified and used in the antiviral experiment, including transfection and generation of recombinant virus. NL 4-3 means the integrase gene of this laboratory strain has been amplified and subsequently used for the antiviral experiment. […] No recombination has been effected using this HIV clone. pHXB2D has been used directly for transfection and antiviral experiment. Primer set 3 consist of outer primers 5'EGINT3 (SEQ ID NO 4) and 3'EGINT10 (SEQ ID NO 11), and inner primers 5'EGINT4 (SEQ ID NO 5) and 3'EGINT6 (SEQ ID NO 7). Primer set 4 consist of outer primers 5'EGINT3 (SEQ ID NO 4) and 3'EGINT10 (SEQ ID NO 11), and inner primers 5'EGINT5 […] and 3'EGINT6 (SEQ ID NO 7). Other suitable integrase inhibitors include L-731,988, diketo-acids and S-1360.

For CC(C)CN(C[C@@H](O)[C@H](Cc1ccccc1)NC(=O)O[C@H]1CO[C@H]2OCC[C@H]21)S(=O)(=O)c1ccc(N)cc1 [Compound 3, [(11S,2R)-3-[[(4-aminophenyl)sulfonyl](2-methylpropyl)amino]-2-hydroxy-1-(phenylmethyl)-propyl]-, (3R,3aS,6aR)-hexahydrofuro[2,3-b]furan-3-yl ester carbamic acid], the fold change ([1]; fold change in EC50) was 2,2, the EC50 ([1]; read-out: EC 50) was 15.6 nM and the fold change ([2]; AVE 1, NL 4-3, primer set 3) was 0,5. For the same compound, the EC50 ([2]; AVE 1, NL 4-3, primer set 3) was 3.7 nM, the fold change ([2]; AVE 4, NL4-3, primer set 4) was 1,5 and the EC50 ([2]; AVE 4, NL4-3, primer set 4) was 10.9 nM. The fold change ([3]; fold change in EC50) was 0,9, the EC50 ([3]; read-out: EC 50) was 6.3 nM and the EC50 [4] was 7.1 nM. For the same compound, the fold change ([4]; fold change in EC50) was 1,0.

— patent publication EP1285971B1, “Methods for the phenotypic and genotypic assessment of the drug sensitivity of HIV integrase variants” (Tibotec Pharmaceuticals Ltd., priority 2001, dated 2003)
